These molecules were tested against T1, human capsaicin receptor (Homo sapiens, UniProt Q8NER1) (assay: Calcium mobilization assay, determination of antagonist activity (Example 6)). Conditions: Table I; IC50 determined as described in Example 6; read-out: IC50.
T1 construct: expressed in transfected cells
Assay type: cell-based
Experimental: A cDNA encoding full length human capsaicin receptor (SEQ ID NO:1, 2 or 3 of U.S. Pat. No. 6,482,611) is subcloned in the plasmid pBK-CMV (Stratagene, La Jolla, Calif.) for recombinant expression in mammalian cells.
Human embryonic kidney (HEK293) cells are transfected with the pBK-CMV expression construct encoding the full length human capsaicin receptor using standard methods. The transfected cells are selected for two weeks in media containing G418 (400 μg/ml) to obtain a pool of stably transfected cells. Independent clones are isolated from this pool by limiting dilution to obtain clonal stable cell lines for use in subsequent experiments.
This Example illustrates representative calcium mobilization assays for use in evaluating test compounds for agonist and antagonist activity.
Cells transfected with expression plasmids (as described in Example 4) and thereby expressing human capsaicin receptor are seeded and grown to 70-90% confluency in FALCON black-walled, clear-bottomed 96-well plates (#3904, BECTON-DICKINSON, Franklin Lakes, N.J.). The culture medium is emptied from the 96 well plates and FLUO-3 AM calcium sensitive dye (Molecular Probes, Eugene, Oreg.) is added to each well (dye solution: 1 mg FLUO-3 AM, 440 μL DMSO and 440 μl 20% pluronic acid in DMSO, diluted 1:250 in Krebs-Ringer HEPES (KRH) buffer (25 mM HEPES, 5 mM KCl, 0.96 mM NaH2PO4, 1 mM MgSO4, 2 mM CaCl2, 5 mM glucose, 1 mM probenecid, pH 7.4), 50 μl diluted solution per well). Plates are covered with aluminum foil and incubated at 37° C. for 1-2 hours in an environment containing 5% CO2. After the incubation, the dye is emptied from the plates, and the cells are washed once with KRH buffer, and resuspended in KRH buffer.
To measure the ability of a test compound to agonize or antagonize a calcium mobilization response in cells expressing capsaicin receptors to capsaicin or other vanilloid agonist, the EC50 of the agonist capsaicin is first determined. An additional 20 μl of KRH buffer and 1 μl DMSO is added to each well of cells, prepared as described above. 100 μl capsaicin in KRH buffer is automatically transferred by the FLIPR instrument to each well. Capsaicin-induced calcium mobilization is monitored using either FLUOROSKAN ASCENT (Labsystems; Franklin, Mass.) or FLIPR (fluorometric imaging plate reader system; Molecular Devices, Sunnyvale, Calif.) instruments. Data obtained between 30 and 60 seconds after agonist application are used to generate an 8-point concentration response curve, with final capsaicin concentrations of 1 nM to 3 μM. KALEIDAGRAPH software (Synergy Software, Reading, Pa.) is used to fit the data to the equation: y=a*(1/(1+(b/x)^c)) to determine the 50% excitatory concentration (EC50) for the response. In this equation, y is the maximum fluorescence signal, x is the concentration of the agonist or antagonist (in this case, capsaicin), a is the Emax, b corresponds to the EC50 value and c is the Hill coefficient. Determination of Agonist Activity
Test compounds are dissolved in DMSO, diluted in 20 μl KRH buffer so that the final concentration of test compounds in the assay well is between 1 μM and 5 μM, and added to cells prepared as described above. The 96 well plates containing prepared cells and test compounds are incubated in the dark, at room temperature for 0.5 to 6 hours. It is important that the incubation not continue beyond 6 hours. Just prior to determining the fluorescence response, 100 μl capsaicin in KRH buffer at twice the EC50 concentration determined as described above is automatically added by the FLIPR instrument to each well of the 96 well plate for a final sample volume of 200 μl and a final capsaicin concentration equal to the EC50. The final concentration of test compounds in the assay wells is between 1 μM and 5 μM. […]

T1 sequence (Q8NER1 whole entry): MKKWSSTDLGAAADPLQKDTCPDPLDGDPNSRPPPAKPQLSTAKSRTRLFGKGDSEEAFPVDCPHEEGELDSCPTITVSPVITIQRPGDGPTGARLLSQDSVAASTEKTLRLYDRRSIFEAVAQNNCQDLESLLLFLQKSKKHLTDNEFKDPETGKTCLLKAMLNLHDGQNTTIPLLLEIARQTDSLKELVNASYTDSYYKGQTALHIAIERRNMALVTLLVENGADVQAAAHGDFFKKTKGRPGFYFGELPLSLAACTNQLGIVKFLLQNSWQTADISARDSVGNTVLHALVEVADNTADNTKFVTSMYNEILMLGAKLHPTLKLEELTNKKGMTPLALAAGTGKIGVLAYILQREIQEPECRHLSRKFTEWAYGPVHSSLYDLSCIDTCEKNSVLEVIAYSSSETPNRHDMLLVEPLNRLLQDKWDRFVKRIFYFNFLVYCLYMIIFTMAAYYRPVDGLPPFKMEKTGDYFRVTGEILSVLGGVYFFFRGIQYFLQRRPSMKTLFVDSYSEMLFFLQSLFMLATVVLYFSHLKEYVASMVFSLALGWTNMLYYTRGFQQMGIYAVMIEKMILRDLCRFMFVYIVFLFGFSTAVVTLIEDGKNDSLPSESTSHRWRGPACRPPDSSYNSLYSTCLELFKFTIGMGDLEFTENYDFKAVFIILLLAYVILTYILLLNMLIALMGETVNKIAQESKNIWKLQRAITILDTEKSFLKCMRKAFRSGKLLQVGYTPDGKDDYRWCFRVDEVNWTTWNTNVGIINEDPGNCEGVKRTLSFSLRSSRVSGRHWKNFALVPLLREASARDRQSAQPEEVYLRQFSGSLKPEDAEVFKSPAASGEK

IC50 [µM]	SMILES
< 1	NC(=O)c1cnc(-c2cnc3c(Nc4cnc(C(F)(F)F)cn4)ccnc3n2)c(C(F)(F)F)c1 [compound 34, 5-(trifluoromethyl)-6-(8-{[5-(trifluoromethyl)pyrazin-2-yl]amino}pyrido[2,3-b]pyrazin-3-yl)nicotinamide]
< 1	NC(=O)c1cnc(-c2cnc3c(Nc4cnc5ccccc5n4)ccnc3n2)c(C(F)(F)F)c1 [compound 35, 6-[8-(quinoxalin-2-ylamino)pyrido[2,3-b]pyrazin-3-yl]-5-(trifluoromethyl)nicotinamide]
< 1	N#Cc1ccc(-c2cnc3c(Nc4ccc(C(F)(F)F)cn4)ccnc3n2)c(C(F)(F)F)c1 [compound 36, 3-(trifluoromethyl)-4-(8-{[5-(trifluoromethyl)pyridin-2-yl]amino}pyrido[2,3-b]pyrazin-3-yl)benzonitrile]
< 1	NC(=O)c1ccc(-c2cnc3c(Nc4ccc(C(F)(F)F)cn4)ccnc3n2)c(C(F)(F)F)c1 [compound 37, 3-(trifluoromethyl)-4-(8-{[5-(trifluoromethyl)pyridin-2-yl]amino}pyrido[2,3-b]pyrazin-3-yl)benzamide]
< 1	O=C(O)c1ccc(-c2cnc3c(Nc4ccc(C(F)(F)F)cn4)ccnc3n2)c(C(F)(F)F)c1 [compound 38, 3-(trifluoromethyl)-4-(8-{[5-(trifluoromethyl)pyridin-2-yl]amino}pyrido[2,3-b]pyrazin-3-yl)benzoic acid]
< 1	CS(=O)(=O)c1ccc(-c2cnc3c(Nc4ccc(C(F)(F)F)cn4)ccnc3n2)c(C(F)(F)F)c1 [compound 41, 3-[4-(methylsulfonyl)-2-(trifluoromethyl)phenyl]-N-[5-(trifluoromethyl)pyridin-2-yl]pyrido[2,3-b]pyrazin-8-amine]
< 1	CCOc1nc(Nc2ccnc3nc(-c4ccc(C#N)cc4C(F)(F)F)cnc23)ccc1C(F)(F)F [compound 42, 4-(8-{[6-ethoxy-5-(trifluoromethyl)pyridin-2-yl]amino}pyrido[2,3-b]pyrazin-3-yl)-3-(trifluoromethyl)benzonitrile]
< 1	CCOc1nc(Nc2ccnc3nc(-c4ccc(C(N)=O)cc4C(F)(F)F)cnc23)ccc1C(F)(F)F [compound 43, 4-(8-{[6-ethoxy-5-(trifluoromethyl)pyridin-2-yl]amino}pyrido[2,3-b]pyrazin-3-yl)-3-(trifluoromethyl)benzamide]
< 1	CCOc1nc(Nc2ccnc3nc(-c4ccc(C(=O)O)cc4C(F)(F)F)cnc23)ccc1C(F)(F)F [compound 44, 4-(8-{[6-ethoxy-5-(trifluoromethyl)pyridin-2-yl]amino}pyrido[2,3-b]pyrazin-3-yl)-3-(trifluoromethyl)benzoic acid]
< 1	CCOc1nc(Nc2ccnc3nc(-c4ncc(C(N)=O)cc4C(F)(F)F)cnc23)ccc1C(F)(F)F [compound 48, 6-(8-{[6-ethoxy-5-(trifluoromethyl)pyridin-2-yl]amino}pyrido[2,3-b]pyrazin-3-yl)-5-(trifluoromethyl)nicotinamide]
< 1	FC(F)(F)c1ccc(Nc2ccnc3nc(-c4nnc(NCCN5CCCCC5)cc4C(F)(F)F)cnc23)nc1 [compound 53, 3-{6-[(2-piperidin-1-ylethyl)amino]-4-(trifluoromethyl)pyridazin-3-yl}-N-[5-(trifluoromethyl)-pyridin-2-yl]pyrido[2,3-b]pyrazin-8-amine]
< 1	CC(C)N(CCNc1cc(C(F)(F)F)c(-c2cnc3c(Nc4ccc(C(F)(F)F)cn4)ccnc3n2)nn1)C(C)C [compound 66, N,N-diisopropyl-N′-[5-(trifluoromethyl)-6-(8-{[5-(trifluoromethyl)pyridin-2-yl]amino}pyrido[2,3-b]pyrazin-3-yl)pyridazin-3-yl]ethane-1,2-diamine]
< 1	CCN(CC)CCCCNc1cc(C(F)(F)F)c(-c2cnc3c(Nc4ccc(C(F)(F)F)cn4)ccnc3n2)nn1 [compound 69, N,N-diethyl-N′-[5-(trifluoromethyl)-6-(8-{[5-(trifluoromethyl)pyridin-2-yl]amino}pyrido[2,3-b]pyrazin-3-yl)pyridazin-3-yl]butane-1,4-diamine]
< 1	CCCCN(C)CCNc1cc(C(F)(F)F)c(-c2cnc3c(Nc4ccc(C(F)(F)F)cn4)ccnc3n2)nn1 [compound 70, N-butyl-N-methyl-N′-[5-(trifluoromethyl)-6-(8-{[5-(trifluoromethyl)pyridin-2-yl]amino}pyrido[2,3-b]pyrazin-3-yl)pyridazin-3-yl]ethane-1,2-diamine]
< 1	CC(C)N1CCN(c2cc(C(F)(F)F)c(-c3cnc4c(Nc5ccc(C(F)(F)F)cn5)ccnc4n3)nn2)CC1 [compound 75, 3-[6-(4-isopropylpiperazin-1-yl)-4-(trifluoromethyl)-pyridazin-3-yl]-N-[5-(trifluoromethyl)pyridin-2-yl]pyrido[2,3-b]pyrazin-8-amine]
< 1	CCN(CC)C1CCN(c2cc(C(F)(F)F)c(-c3cnc4c(Nc5ccc(C(F)(F)F)cn5)ccnc4n3)nn2)CC1 [compound 80]
< 1	CCCN(CCC)C1CCN(c2cc(C(F)(F)F)c(-c3cnc4c(Nc5ccc(C(F)(F)F)cn5)ccnc4n3)nn2)CC1 [compound 81, 3-{6-[4-(dipropylamino)-piperidin-1-yl]-4-(trifluoro-methyl)pyridazin-3-yl}-N-[5-(trifluoromethyl)pyridin-2-yl]pyrido[2,3-b]pyrazin-8-amine]
< 1	CCCN(CC1CC1)C1CCN(c2cc(C(F)(F)F)c(-c3cnc4c(Nc5ccc(C(F)(F)F)cn5)ccnc4n3)nn2)CC1 [compound 87, 3-[6-{4-[(cyclopropylmethyl)-(propyl)amino]piperidin-1-yl}-4-(trifluoromethyl)-pyridazin-3-yl]-N-[5-(trifluoromethyl)pyridin-2-yl]-pyrido[2,3-b]pyrazin-8-amine]
< 1	CN(C)CCCN(C)c1cc(C(F)(F)F)c(-c2cnc3c(Nc4ccc(C(F)(F)F)cn4)ccnc3n2)nn1 [compound 88, N,N,N′-trimethyl-N′-[5-(trifluoromethyl)-6-(8-{[5-(trifluoromethyl)pyridin-2-yl]amino}pyrido[2,3-b]pyrazin-3-yl)pyridazin-3-yl]propane-1,3-diamine]
< 1	CCN(C)CCN(CC)c1cc(C(F)(F)F)c(-c2cnc3c(Nc4ccc(C(F)(F)F)cn4)ccnc3n2)nn1 [compound 91, N,N′-diethyl-N-methyl-N′-[5-(trifluoromethyl)-6-(8-{[5-(trifluoromethyl)pyridin-2-yl]amino}pyrido[2,3-b]pyrazin-3-yl)pyridazin-3-yl]ethane-1,2-diamine]
< 1	CC(C)CNc1cc(C(F)(F)F)c(-c2cnc3c(Nc4ccc(C(F)(F)F)cn4)ccnc3n2)nn1 [compound 99, 3-[6-(isobutylamino)-4-(trifluoromethyl)pyridazin-3-yl]-N-[5-(trifluoromethyl)-pyridin-2-yl]pyrido[2,3-b]pyrazin-8-amine]
< 1	FC(F)(F)c1ccc(Nc2ccnc3nc(-c4nnc(NC5CC5)cc4C(F)(F)F)cnc23)nc1 [compound 104, 3-[6-(cyclopropylamino)-4-(trifluoromethyl)pyridazin-3-yl]-N-[5-(trifluoromethyl)-pyridin-2-yl]pyrido[2,3-b]pyrazin-8-amine]
< 1	CCC(CC)Nc1cc(C(F)(F)F)c(-c2cnc3c(Nc4ccc(C(F)(F)F)cn4)ccnc3n2)nn1 [compound 115, 3-{6-[(1-ethylpropyl)amino]-4-(trifluoromethyl)pyridazin-3-yl}-N-[5-(trifluoromethyl)-pyridin-2-yl]pyrido[2,3-b]pyrazin-8-amine]

— patent US7935702B2, “Substituted biaryl quinolin-4-ylamine analogues” (Neurogen Corporation, priority 2004, dated 2011)
